The test system of the test is SARS-CoV-2. Description: Virucidal efficacy: 30sec incubation of SARS-CoV-2 with mouth rinsing solution, then standard plaque assay on Vero E6 cells. It is filed as cell-based, Severe acute respiratory syndrome coronavirus 2. To be noted: 1x10^6 pfu SARS-CoV-2 incubated with solution (2-fold diluted) for 30sec at 37°C; Dilution 4 analyzed on Vero E6; compared to negative control. The procedure: A mouth rinsing solution according to the invention (see example 1 below) and some of their individual active components were tested regarding their virucidal efficacy against the novel coronavirus SARS-CoV-2, in vitro. To evaluate if this procedure is sufficient to successfully inactivate SARS-CoV-2, in the following study 1x10^6 infectious SARS-CoV-2 particles were incubated with the solutions (dilution factor: 2) for 30sec. After a serial dilution the samples were submitted to a standard plaque assay to check for the presence of infectious virus particles post incubation with the different solutions.
Test solutions: • Example 1 (0.1% Chlorhexidine (CHX), 0.05% CPC, PEG-40 hydrogenated castor oil), according to the invention Comparative examples: • 0.1% CHX plus 0.05% CPC • 0.05% CPC • 0.1% CHX • 1.5% H2O2 • 0.5% H2O2 […]
The samples were mixed briefly by vortexing and incubated at 37°C for 30sec. […] Dilution 4 of each sample was analyzed in technical duplicates in a plaque assay. […]
The virucidal activity of example 1 and some of their individual components were investigated against the novel corona virus SARS-CoV-2 by a 30sec incubation of 1x10^6 pfu SARS-CoV-2 with the test substances, followed by a standard plaque assay. […] Medium", positive control, in column 3, each analyzed in technical duplicates.

In the case of `[H]/N=C(\N/C(=N/[H])NCCCCCCNC(=N)NC(=N)Nc1ccc(Cl)cc1)Nc1ccc(Cl)cc1` [0.1% CHX, Chlorhexidine], the “infectious SARS-CoV-2 particles / number of plaques in the plaque assay” value is reported as “no reduction compared to the negative control”.

For the compound `OO` [1.5% H2O2, Hydrogen peroxide], the “infectious SARS-CoV-2 particles / number of plaques in the plaque assay” value is recorded as “no reduction compared to the negative control”.

Values taken from patent EP3964196A1, “USE OF CHL[…] CETYLPYRIDINIUM CHLORIDE AS ANTIVIRAL AGENTS” (Ferton Holding S.A., priority 2020, dated 2022).
